In US8193349B2, “4-benzylamino-1-carboxylacyl-piperidine derivatives as CETP inhibitors” (Novartis AG, priority 2007, dated 2012):

Target: T1, CETP (Homo sapiens, UniProt P11597)
T1 construct: tissue New Drug Development Research Center, Inc; host or cells: human EDTA plasma from healthy men
T1 sequence (P11597 18-493): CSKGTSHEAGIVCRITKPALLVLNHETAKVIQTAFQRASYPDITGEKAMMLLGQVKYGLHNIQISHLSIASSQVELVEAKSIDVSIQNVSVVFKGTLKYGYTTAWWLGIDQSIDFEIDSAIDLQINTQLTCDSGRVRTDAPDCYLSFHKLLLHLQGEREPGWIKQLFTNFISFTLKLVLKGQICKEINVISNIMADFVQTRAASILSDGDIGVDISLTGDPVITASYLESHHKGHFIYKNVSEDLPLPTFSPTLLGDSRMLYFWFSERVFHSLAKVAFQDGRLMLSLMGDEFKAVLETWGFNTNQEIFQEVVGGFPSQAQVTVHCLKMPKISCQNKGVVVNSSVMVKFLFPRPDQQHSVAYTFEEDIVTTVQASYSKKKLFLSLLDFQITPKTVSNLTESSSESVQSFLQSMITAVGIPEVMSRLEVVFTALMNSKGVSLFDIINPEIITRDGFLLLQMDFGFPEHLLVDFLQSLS
Experiment: In vitro CETP activity assay in human plasma
Type: biochemical
Settings: CETP inhibition; Table 1 does not name the assay, it follows the human plasma assay; read-out: IC50 (nM), Inhibitory Activity of Compounds
Description: The cDNA of human pro-apoAI (NCBI accession number: NM_000039) is cloned from human liver Quick-Clone™ cDNA (Clontech, CA) and inserted to a pET28a vector (Novagen, Germany) for bacterial expression. Expressed protein as a fusion protein with 6×His-tag at N-terminus in BL-21 Gold (DE3) (Strategene, CA) is purified using HiTrap Chelating (GE Healthcare, CT).
Pro-apoAI containing microemulsion as a donor particle is prepared following previous reports (J. Biol. Chem., 280:14918-22). Glyceryl trioleate (62.5 ng, Sigma, Mo.), 3-sn-phosphatidylcholine (583 ng, Wako Pure Chemical Industries, Japan), and cholesteryl BODIPY® FL C12 (250 ng, Invitrogen, CA) are dissolved in 1 mL of chloroform. The solution is evaporated, then residual solvent is removed in vacuum for more than 1 hr. The dried lipid mixture is dissolved in 500 μL of the assay buffer (50 mM Tris-HCl (pH7.4) containing 150 mM NaCl and 2 mM EDTA) and sonicated at 50° C. with a microtip (MICROSON™ ULTRASONIC CELL DISRUPTOR, Misonix, Farmingdale, N.Y.) at output power 006 for 2 min. After sonication, the solution is cooled to 40° C., added to 100 μg of human pro-apoAI, and sonicated at output power 004 for 5 min at 40° C. The solution, BODIPY-CE microemulsion as a donor molecule is stored at 4° C. after filtration through a 0.45 μm PVDF filter.
Human EDTA plasma samples from healthy men are purchased from New Drug Development Research Center, Inc. Donor solution is prepared by a dilution of donor microemulsion with assay buffer. Human plasma (50 μL), assay buffer (35 μL) and test compound dissolved in dimethylsulfoxide (1 μL) are added to each well of 96 well half area black flat bottom plate. The reaction is started by the addition of donor solution (14 μL) into each well. Fluorescence intensities are measured every 30 min at 37° C. with excitation wave length of 485 nm and emission wavelength of 535 nm. The CETP activity (FI/min) is defined as the changes of fluorescence intensity from 30 to 90 min.

IC50 [nM]	Compound
135	CC[C@@H]1C[C@H](N(Cc2cc(C(F)(F)F)cc(C(F)(F)F)c2)c2ncc(-c3cnn(C)c3)cn2)C[C@H](CC)N1C(=O)OCCCCC(=O)O [Example 1-5]
69	CC[C@@H]1C[C@H](N(Cc2cc(C(F)(F)F)cc(C(F)(F)F)c2)c2ncc(-c3cnn(C)c3)cn2)C[C@H](CC)N1C(=O)O[C@H]1CC[C@H](C(=O)O)CC1 [Example 1-8]
86	CC[C@@H]1C[C@H](N(Cc2cc(C(F)(F)F)cc(C(F)(F)F)c2)c2ncc(-c3cnn(C)c3)cn2)C[C@H](CC)N1C(=O)O[C@H]1C[C@H](C(=O)O)C1 [Example 1-17]
98	C[C@@H]1C[C@H](N(Cc2cc(C(F)(F)F)cc(C(F)(F)F)c2)c2ncc(-c3cnn(C)c3)cn2)C[C@H](C)N1C(=O)O[C@H]1CC[C@H](C(=O)O)CC1 [Example 1-19]

The remaining lines, values behind:

Compound	IC50 [nM]
CC[C@@H]1C[C@H](N(Cc2cc(C(F)(F)F)cc(C(F)(F)F)c2)c2ncc(-c3cnn(C)c3)cn2)C[C@H](CC)N1C(=O)[C@H]1CC[C@H](CC(=O)O)CC1 [Example 1-2]	142
CC[C@@H]1C[C@H](N(Cc2cc(C(F)(F)F)cc(C(F)(F)F)c2)c2ncc(-c3cnn(C)c3)cn2)C[C@H](CC)N1C(=O)OCC(C)(C)CCC(=O)O [Example 1-11]	63
CC[C@@H]1C[C@H](N(Cc2cc(Cl)cc(Cl)c2)c2ncc(-c3cnn(C)c3)cn2)C[C@H](CC)N1C(=O)O[C@H]1CC[C@H](C(=O)O)CC1 [Example 1-20]	91
CC[C@@H]1C[C@H](N(Cc2cc(F)cc(C(F)(F)F)c2)c2ncc(-c3cnn(C)c3)cn2)C[C@H](CC)N1C(=O)O[C@H]1CC[C@H](C(=O)O)CC1 [Example 1-22]	99
CC[C@@H]1C[C@H](N(Cc2cc(C(F)(F)F)cc(C(F)(F)F)c2)c2ncc(-c3cnn(C)c3)cn2)C[C@H](CC)N1C(=O)O[C@H]1C[C@H](C(C)(C)C(=O)O)C1 [Example 1-27]	152
CC[C@@H]1C[C@H](N(Cc2cc(C(F)(F)F)cc(C(F)(F)F)c2)c2ncc(-c3cnn(C)c3)cn2)C[C@H](CC)N1C(=O)OCCCCC(N)=O [Example 4, cis-4-{[3,5-bis(trifluoromethyl)benzyl]-[5-(1-methyl-1H-pyrazol-4-yl)-pyrimidin-2-yl]-amino}-2,6-diethyl-piperidine-1-carboxylic acid 4-carbamoyl-butyl ester]	68
